SMILES strings stand for the structures.

In one series the target is T1, human ACC2 (Homo sapiens, UniProt O00763).
T1 construct: made in house; host or cells: SF-9 insect cells, recombinant baculovirus BAC-ACC2 (Nd)
Nature of the series: ACC2 inhibitory activity, malachite green assay with recombinant ACC2 (Nd). Format: biochemical. The following applies: for inhibition at 1 µM: 1 μM of the test compound, read-out: ACC2 inhibitory rates (%) at 1 μM; for inhibition at 10 µM: 10 μM of the test compound, read-out: ACC2 inhibitory rates (%) at 10 μM. Here is the method: The ACC2 inhibitory action of the compound of the present invention was evaluated by the following method.
(1) Cloning of Human ACC2 Gene and Preparation of Recombinant Baculovirus
Human ACC2 gene was cloned by PCR using a human skeletal muscle cDNA library (Clontech) as a template and Primer 1 and Primer 2 shown below. Primer 1 and Primer 2 were prepared by adding SalI, XbaI restriction enzyme recognition sequences based on the information of the base sequence of human ACC2 gene (Genbank Accession U89344).
PCR was performed using Pyrobest DNA polymerase (TAKARA BIO INC.). The obtained PCR product was cloned to pT7 Blue vector (Novagen) and after confirmation of the base sequence, digested with restriction enzymes SalI and XbaI. The obtained DNA fragment was inserted into pFAST-BacHTa (Invitrogen) digested with restriction enzymes SalI and XbaI to give expression plasmid ACC2/pFAST-BacHTa.
A plasmid for expression of ACC2 without a mitochondrial targeting sequence was prepared by PCR using the expression plasmid as a template, and Primer 3 (SalI restriction enzyme recognition sequence was added) and Primer 4, which are prepared by reference to the information of human ACC2 gene base sequence (Genbank Accession U89344).
PCR was performed using Pyrobest-DNA polymerase (TAKARA BIO INC.). The obtained PCR product was cloned to pT7 Blue vector (Novagen) and after confirmation of the base sequence, digested with restriction enzymes SalI and AflII. The obtained DNA fragment was inserted into ACC2/pFAST-BacHTa digested with restriction enzymes SalI and AflII to give expression plasmid ACC2mito7/pFAST-BacHTa.
Using the expression plasmid ACC2mito7/pFAST-BacHTa and BAC-TO-BAC Baculovirus Expression System (Invitrogen), virus stock BAC-ACC2 of recombinant Baculovirus (N terminal deleted (hereinafter Nd)) was prepared.
(2) Preparation of ACC2 (Nd) Protein
SF-9 cells (Invitrogen) were inoculated to a medium (10 L) for insect cells (Sf-900IISFM medium (Invitrogen) containing 5% fetal bovine serum (Trace), 50 mg/L Gentamicin (Wako), 0.1% Pluronic F-68 (Invitrogen)) at 1.0×10^6 cells/mL, and cultured with shaking in Wave Bioreactor (GE Health Care) at 27° C., 20 rpm, rocking angle 10°, oxygen concentration 30%.
On day 2 of the culture, recombinant Baculovirus BAC-ACC2 (Nd) was added, and the cells were cultured for 3 days. The culture medium was centrifuged at 1000×g for 10 min to give virus-infected cells. The cells were washed with phosphate buffered saline (Invitrogen) and centrifuged under the same conditions. The obtained cells were cryopreserved at −80° C.
The cryopreserved cells were thawed in ice and suspended in 900 mL of 25 mM HEPES buffer (pH 7.5) containing 10% Glycerol, 0.3 M NaCl, 1 mM EDTA, 25 mM Sodium β-Glycerophosphate and 1 mM Sodium Orthovanadate, and supplemented with Complete Protease Inhibitor (Roche). The obtained suspension was homogenized three times in a polytron homogenizer (Kinematica) at 20,000 rpm for 30 sec. The obtained cell disruption solution was clarified by centrifugation at 186000×g for 60 min. To the supernatant was added 5 mL of AF-chelate 650M Ni chelated carrier (TOSOH), and the mixture was rotated at 4° C. for 1 hr, and centrifuged at 1000×g for 5 min, and the carrier was transferred to opened column. The column was washed with 50 mL of buffer A (50 mM HEPES (pH 7.5) containing 0.3 M NaCl), further washed with buffer A containing 20 mM Imidazole, and eluted with buffer A containing 250 mM Imidazole. The eluate was concentrated with Amicon Ultra 15 (Millipore) with a molecular weight cut off of 50K. The obtained concentrate was filtered using gelfiltration column (HiLoad 26/60 Superdex200 prep grade) (GE Health Care) with 50 mM HEPES buffer (pH 7.5) containing 10 mM MgCl2, 2 mM Dithiothreitol, 10 mM Tripotassium Citrate and 0.3 M NaCl to give ACC2 (Nd). The obtained ACC2 (Nd) was cryopreserved at −80° C.
(3) Measurement of ACC2 Inhibitory Activity […]

T1 sequence (O00763 117-2458 limits assumed): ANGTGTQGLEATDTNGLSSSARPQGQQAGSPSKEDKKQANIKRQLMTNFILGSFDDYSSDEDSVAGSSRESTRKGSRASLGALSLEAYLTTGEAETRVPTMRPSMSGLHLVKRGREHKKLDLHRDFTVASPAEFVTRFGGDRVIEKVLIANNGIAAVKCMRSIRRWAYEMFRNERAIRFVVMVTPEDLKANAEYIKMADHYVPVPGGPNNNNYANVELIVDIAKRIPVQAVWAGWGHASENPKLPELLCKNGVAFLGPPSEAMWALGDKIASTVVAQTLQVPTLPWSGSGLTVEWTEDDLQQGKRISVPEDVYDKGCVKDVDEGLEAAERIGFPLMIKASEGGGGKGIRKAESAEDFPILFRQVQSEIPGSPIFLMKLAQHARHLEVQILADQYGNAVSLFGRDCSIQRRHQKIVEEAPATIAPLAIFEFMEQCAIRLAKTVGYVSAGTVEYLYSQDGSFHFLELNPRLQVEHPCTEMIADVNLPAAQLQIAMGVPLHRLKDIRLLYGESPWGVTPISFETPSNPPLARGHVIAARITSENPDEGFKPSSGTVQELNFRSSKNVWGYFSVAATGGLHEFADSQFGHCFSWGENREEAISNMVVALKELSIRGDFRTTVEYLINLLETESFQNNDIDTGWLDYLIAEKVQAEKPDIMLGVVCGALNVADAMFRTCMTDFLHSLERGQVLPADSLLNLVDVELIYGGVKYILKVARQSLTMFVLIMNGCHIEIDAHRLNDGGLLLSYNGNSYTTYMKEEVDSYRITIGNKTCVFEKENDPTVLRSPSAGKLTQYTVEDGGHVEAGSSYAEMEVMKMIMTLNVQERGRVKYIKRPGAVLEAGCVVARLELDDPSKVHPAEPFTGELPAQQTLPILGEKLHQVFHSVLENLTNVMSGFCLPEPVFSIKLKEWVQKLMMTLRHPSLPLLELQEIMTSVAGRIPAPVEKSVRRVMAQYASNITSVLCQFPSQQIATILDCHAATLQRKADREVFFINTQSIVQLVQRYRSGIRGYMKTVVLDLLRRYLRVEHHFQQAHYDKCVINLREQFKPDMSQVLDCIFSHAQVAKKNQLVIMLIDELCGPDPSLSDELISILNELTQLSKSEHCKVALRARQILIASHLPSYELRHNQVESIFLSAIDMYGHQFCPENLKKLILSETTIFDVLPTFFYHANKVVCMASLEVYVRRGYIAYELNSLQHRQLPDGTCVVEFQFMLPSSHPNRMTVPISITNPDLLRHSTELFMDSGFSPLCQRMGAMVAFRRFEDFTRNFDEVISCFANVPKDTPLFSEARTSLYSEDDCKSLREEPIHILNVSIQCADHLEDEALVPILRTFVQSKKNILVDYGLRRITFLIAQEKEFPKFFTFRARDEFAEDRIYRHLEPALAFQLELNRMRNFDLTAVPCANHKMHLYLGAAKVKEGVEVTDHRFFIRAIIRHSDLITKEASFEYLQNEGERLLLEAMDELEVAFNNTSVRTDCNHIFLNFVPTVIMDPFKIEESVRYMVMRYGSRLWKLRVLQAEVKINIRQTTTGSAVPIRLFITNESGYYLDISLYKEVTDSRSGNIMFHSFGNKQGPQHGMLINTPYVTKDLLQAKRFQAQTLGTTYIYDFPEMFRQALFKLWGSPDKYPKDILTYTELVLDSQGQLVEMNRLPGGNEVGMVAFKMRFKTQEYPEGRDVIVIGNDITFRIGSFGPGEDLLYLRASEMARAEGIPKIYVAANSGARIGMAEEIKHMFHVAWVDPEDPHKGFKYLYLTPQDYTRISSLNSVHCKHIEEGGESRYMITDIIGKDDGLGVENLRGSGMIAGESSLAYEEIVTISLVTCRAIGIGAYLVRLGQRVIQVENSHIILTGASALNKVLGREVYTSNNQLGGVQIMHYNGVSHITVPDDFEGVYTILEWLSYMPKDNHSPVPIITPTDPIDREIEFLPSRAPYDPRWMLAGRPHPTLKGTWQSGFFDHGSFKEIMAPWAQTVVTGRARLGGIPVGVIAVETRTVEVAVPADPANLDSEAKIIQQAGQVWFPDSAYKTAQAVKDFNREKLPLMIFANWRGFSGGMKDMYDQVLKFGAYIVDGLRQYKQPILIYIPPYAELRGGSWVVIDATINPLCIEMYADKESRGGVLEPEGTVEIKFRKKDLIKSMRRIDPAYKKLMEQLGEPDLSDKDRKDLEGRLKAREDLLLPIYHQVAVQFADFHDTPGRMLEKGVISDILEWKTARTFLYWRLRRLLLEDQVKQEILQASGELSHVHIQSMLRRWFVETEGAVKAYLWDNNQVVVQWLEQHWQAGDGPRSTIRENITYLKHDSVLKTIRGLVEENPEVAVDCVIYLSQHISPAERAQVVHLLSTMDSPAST

As a reminder, the melting point is the temperature of the solid-liquid transition. As to `CC(=O)N[C@@H](C)COc1cc2oc(-c3cc(F)c(OCC4CC4)cn3)nc2cn1` [Example 65, N-((2S)-1-((2-(5-(cyclopropylmethoxy)-4-fluoropyridin-2-yl)[1,3]oxazolo[4,5-c]pyridin-6-yl)oxy)propan-2-yl)acetamide], the melting point lay in the range of 183.3 to 183.4 °C. Besides, the inhibition at 1 µM at human ACC2 was 95%.

The compound `CC(=O)N[C@@H](C)COc1cc2oc(-c3cc(F)c(OCC4CC4)cc3F)nc2cn1` [Example 48, N-((2S)-1-((2-(4-(cyclopropylmethoxy)-2,5-difluorophenyl)[1,3]oxazolo[4,5-c]pyridin-6-yl)oxy)propan-2-yl)acetamide] registered a melting point of 199.8 to 199.9 °C. Further, the inhibition at 10 µM at human ACC2 came to 85%.

Regarding `CC(=O)N[C@@H](C)COc1cc2oc(-c3ccc(OC[C@H]4CC4(F)F)cc3)nc2cn1` [Example 68, N-((2S)-1-((2-(4-(((1R)-2,2-difluorocyclopropyl)methoxy)phenyl) [1,3]oxazolo[4,5-c]pyridin-6-yl)oxy)propan-2-yl)acetamide], the melting point lay within 204.6 to 204.7 °C. Moreover, the inhibition at 1 µM at human ACC2 was determined as 98%.

With `CC(=O)N[C@@H](C)COc1ccc2nc(-c3ccc(OCC4CC4)c(F)c3)oc2c1` [Example 1, N-((2S)-1-((2-(4-(cyclopropylmethoxy)-3-fluorophenyl)-1,3-benzoxazol-6-yl)oxy)propan-2-yl)acetamide], the melting point turned out to be 174 °C. Besides, the inhibition at 10 µM on human ACC2 is 95%.

(Values after US9133129B2, “Bicyclic compound” (TAKEDA PHARMACEUTICAL COMPANY LIMITED, priority 2011, dated 2015).)
